Each block holds one molecule with its values, some of them ahead of it.
Tests used:
[1] = target: T1, Prostaglandin E2 receptor EP2 subtype (Homo sapiens, UniProt P43116); experiment: Displacement of [3H]PGE2 from human EP2 receptor expressed in HEK293 cells at pH 7.3 membranes incubated for 60 mins; type: cell-based
[2] = target: T1, Prostaglandin E2 receptor EP2 subtype; experiment: Agonist activity at human recombinant EP2 receptor expressed in HEK293 cells assessed as effect on calcium accumulation by Fluo-4 AM dye based FLIPR assay; type: functional, cell-based
Canis familiaris [3] = experiment: Effect on ocular surface hyperemia in Beagle dog assessed as maximum ocular surface hyperemia score assigned value at 0.1% administered topically to one eye immediately after first intraocular pressure reading by pneumatonometry; type: functional, Canis lupus familiaris
Rhesus monkey [4] = experiment: Reduction in intraocular pressure in monkey assessed as maximal change in intraocular pressure at 0.1% administered topically to one eye immediately after first intraocular pressure reading by pneumatonometry; type: functional, Macaca mulatta
Canis familiaris [5] = experiment: Effect on ocular surface hyperemia in Beagle dog assessed as maximum ocular surface hyperemia score assigned value at 0.3% administered topically to one eye immediately after first intraocular pressure reading by pneumatonometry; type: functional, Canis lupus familiaris
Rhesus monkey [6] = experiment: Reduction in intraocular pressure in monkey assessed as maximal change in intraocular pressure at 0.3% administered topically to one eye immediately after first intraocular pressure reading by pneumatonometry; type: functional, Macaca mulatta
Rhesus monkey [7] = experiment: Reduction in intraocular pressure in monkey assessed as maximal change in intraocular pressure at 0.01% administered topically to one eye immediately after first intraocular pressure reading by pneumatonometry; type: functional, Macaca mulatta
[8] = target: Prostaglandin E2 receptor EP4 subtype (Homo sapiens, UniProt P35408); experiment: Displacement of [3H]PGE2 from human EP4 receptor expressed in HEK293 cells membranes incubated for 60 mins; type: cell membranes
Prostaglandin E2 receptor EP4 subtype, sequence (P35408 whole entry): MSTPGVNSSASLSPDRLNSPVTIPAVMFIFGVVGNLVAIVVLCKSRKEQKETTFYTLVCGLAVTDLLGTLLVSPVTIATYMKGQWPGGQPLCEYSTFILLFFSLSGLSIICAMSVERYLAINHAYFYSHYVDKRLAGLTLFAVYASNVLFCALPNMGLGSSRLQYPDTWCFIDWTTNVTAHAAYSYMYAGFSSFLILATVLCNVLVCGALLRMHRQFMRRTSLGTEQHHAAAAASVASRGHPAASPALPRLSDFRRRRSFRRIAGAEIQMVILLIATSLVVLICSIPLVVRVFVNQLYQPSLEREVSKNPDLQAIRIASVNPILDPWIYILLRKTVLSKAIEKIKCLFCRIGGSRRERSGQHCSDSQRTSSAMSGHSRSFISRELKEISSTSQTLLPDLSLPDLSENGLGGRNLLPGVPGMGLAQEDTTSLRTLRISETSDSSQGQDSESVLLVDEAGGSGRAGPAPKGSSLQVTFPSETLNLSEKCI

T1 sequence (P43116 whole entry): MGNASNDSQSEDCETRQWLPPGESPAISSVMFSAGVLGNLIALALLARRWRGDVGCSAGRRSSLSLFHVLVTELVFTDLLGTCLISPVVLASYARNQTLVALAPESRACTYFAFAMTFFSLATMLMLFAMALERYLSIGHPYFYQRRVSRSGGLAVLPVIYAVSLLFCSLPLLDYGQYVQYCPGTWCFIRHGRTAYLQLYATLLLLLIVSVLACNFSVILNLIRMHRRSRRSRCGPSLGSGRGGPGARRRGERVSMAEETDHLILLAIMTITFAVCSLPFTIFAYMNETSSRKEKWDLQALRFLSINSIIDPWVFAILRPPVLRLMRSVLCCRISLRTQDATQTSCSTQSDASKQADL

Ki ([1]; hek293): 50 µM
EC50 ([2]; hek293): 50 µM
SMILES: CCCCCC(O)c1ccc([C@H]2CC[C@@H](Cl)[C@@H]2CCCCCCC(=O)OC)cc1 (stereo partly specified)

SMILES: O=C(O)CCC/C=C\C[C@@H]1[C@@H](c2ccc(C(O)C3CCCCC3)cc2)[C@H](O)C[C@H]1Cl (stereo partly specified)
Activity_index (Canis familiaris [3]): 1

SMILES: CCCCCC(O)c1ccc([C@@H]2[C@@H](C/C=C\CCCC(=O)OC(C)C)[C@H](Cl)C[C@H]2Cl)cc1 (stereo partly specified)
Activity (Rhesus monkey [4]): 19 mmHg

Ki ([1]; hek293): 50 µM
EC50 ([2]; hek293): 50 µM
SMILES: CCCCCC(O)c1cccc([C@H]2CCC(=O)[C@@H]2CCCCCCC(=O)OC)c1 (stereo partly specified)

SMILES: O=C(O)CCC/C=C\C[C@@H]1[C@@H](c2ccc3c(c2)CCC3O)[C@H](O)C[C@H]1Cl (stereo partly specified)
Activity_index (Canis familiaris [5]): 1
Activity (Rhesus monkey [6]): 7 mmHg

SMILES: CC(C)OC(=O)CCC/C=C\C[C@@H]1[C@@H](c2ccc(C(O)C3CCCCC3)cc2)[C@H](O)C[C@H]1Cl (stereo partly specified)
Activity (Rhesus monkey [7]): 5 mmHg

SMILES: CCCCCC(=O)c1ccc([C@@H]2[C@@H](C/C=C\CCCC(=O)OC(C)C)[C@H](Cl)C[C@H]2O)cc1
Activity (Rhesus monkey [4]): 20 mmHg

SMILES: CCCCCC(=O)c1ccc([C@@H]2[C@@H](C/C=C\CCCC(=O)O)[C@H](Cl)C[C@H]2O)cc1
Activity (Rhesus monkey [4]): 31 mmHg

Ki ([1]; hek293): 50 µM
EC50 ([2]; hek293): 50 µM
SMILES: CCCCCC(O)c1ccc([C@H]2CCC=C2CCCCCCC(=O)OC)cc1 (stereo partly specified)

Ki ([1]; hek293): 50 µM
EC50 ([2]; hek293): 50 µM
SMILES: CCCCCC(O)c1ccc([C@H]2CC[C@@H](F)[C@@H]2CCCCCCC(=O)OC)cc1 (stereo partly specified)

Ki [8]: 2.81 µM
EC50 [2]: 0.031 µM
SMILES: CCCCCC(=O)c1ccc([C@H]2[C@H](O)CC(=O)[C@@H]2C/C=C\CCCC(=O)O)cc1

SMILES: CC(C)OC(=O)CCCCCC[C@@H]1[C@@H](c2ccc(C(C)(C)C)cc2)[C@H](O)C[C@H]1Cl
Activity (Rhesus monkey [7]): 8 mmHg

SMILES: CCCCCC(O)c1ccc([C@H]2CC[C@@H](Cl)[C@@H]2CCCCCCCO)cc1 (stereo partly specified)
Ki [1]: 50 µM
EC50 [2]: 50 µM

SMILES: CC(C)OC(=O)CCC/C=C\C[C@@H]1[C@@H](c2ccc(C(C)(C)CO)cc2)[C@H](O)C[C@H]1Cl
Activity (Rhesus monkey [4]): 6 mmHg
